Literature values as cited in patent US20050203299A1 (priority 2003, published 2005).

Key:
[1] = tested on: cholinergic muscarinic receptors
[2] = target: T1, serotonin 5-HT1A receptor (Homo sapiens, UniProt P08908)
T1 sequence (P08908 1-422): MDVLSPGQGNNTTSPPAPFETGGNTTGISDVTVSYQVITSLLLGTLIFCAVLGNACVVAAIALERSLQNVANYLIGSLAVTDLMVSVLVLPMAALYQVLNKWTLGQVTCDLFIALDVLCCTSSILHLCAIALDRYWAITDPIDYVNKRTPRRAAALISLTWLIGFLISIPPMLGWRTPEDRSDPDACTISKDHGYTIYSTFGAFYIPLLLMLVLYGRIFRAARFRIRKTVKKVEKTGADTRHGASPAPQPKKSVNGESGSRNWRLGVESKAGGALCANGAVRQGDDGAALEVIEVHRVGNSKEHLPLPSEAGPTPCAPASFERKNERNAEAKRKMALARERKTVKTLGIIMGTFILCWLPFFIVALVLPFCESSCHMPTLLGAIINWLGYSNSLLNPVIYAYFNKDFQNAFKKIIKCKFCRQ

[3] = target: T2, serotonin 5-HT2C receptor (Homo sapiens, UniProt P28335)
T2 sequence (P28335 33-458): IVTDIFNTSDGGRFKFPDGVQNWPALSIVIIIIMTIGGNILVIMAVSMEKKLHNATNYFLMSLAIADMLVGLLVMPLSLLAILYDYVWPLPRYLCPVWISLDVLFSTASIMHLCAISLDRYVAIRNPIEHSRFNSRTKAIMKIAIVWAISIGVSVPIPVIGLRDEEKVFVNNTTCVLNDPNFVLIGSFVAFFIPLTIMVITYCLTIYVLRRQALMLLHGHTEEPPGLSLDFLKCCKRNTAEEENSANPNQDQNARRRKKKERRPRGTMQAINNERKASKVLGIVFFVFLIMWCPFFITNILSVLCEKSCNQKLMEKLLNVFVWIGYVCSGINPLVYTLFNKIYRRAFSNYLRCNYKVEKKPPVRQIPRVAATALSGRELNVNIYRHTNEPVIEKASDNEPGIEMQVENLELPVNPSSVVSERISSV

serotonin reuptake site = serotonin reuptake site (Homo sapiens, UniProt P31645)
histamine H1 receptor = histamine H1 receptor (Homo sapiens, UniProt P35367)
[4] = target: serotonin 5-HT2A receptor (Homo sapiens, UniProt P28223)
[5] = prepared by recrystallization from ethanol or by heating aripiprazole hydrate at 80° C.; according to WO 03/26659

histamine H1 receptor, sequence (P35367 whole entry): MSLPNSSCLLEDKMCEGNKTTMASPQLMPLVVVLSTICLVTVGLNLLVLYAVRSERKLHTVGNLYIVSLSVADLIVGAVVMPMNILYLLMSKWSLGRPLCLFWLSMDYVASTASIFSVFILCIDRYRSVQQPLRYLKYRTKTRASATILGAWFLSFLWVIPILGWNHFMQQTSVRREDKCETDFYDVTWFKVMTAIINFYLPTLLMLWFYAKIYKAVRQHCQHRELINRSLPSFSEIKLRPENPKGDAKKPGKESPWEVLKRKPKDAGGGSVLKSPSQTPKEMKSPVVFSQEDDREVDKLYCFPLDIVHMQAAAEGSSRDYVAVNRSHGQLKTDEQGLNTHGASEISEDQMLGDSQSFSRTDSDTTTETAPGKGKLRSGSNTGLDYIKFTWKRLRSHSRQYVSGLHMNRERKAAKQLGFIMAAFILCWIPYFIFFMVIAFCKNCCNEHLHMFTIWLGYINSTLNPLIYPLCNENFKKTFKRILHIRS
serotonin reuptake site, sequence (P31645 whole entry): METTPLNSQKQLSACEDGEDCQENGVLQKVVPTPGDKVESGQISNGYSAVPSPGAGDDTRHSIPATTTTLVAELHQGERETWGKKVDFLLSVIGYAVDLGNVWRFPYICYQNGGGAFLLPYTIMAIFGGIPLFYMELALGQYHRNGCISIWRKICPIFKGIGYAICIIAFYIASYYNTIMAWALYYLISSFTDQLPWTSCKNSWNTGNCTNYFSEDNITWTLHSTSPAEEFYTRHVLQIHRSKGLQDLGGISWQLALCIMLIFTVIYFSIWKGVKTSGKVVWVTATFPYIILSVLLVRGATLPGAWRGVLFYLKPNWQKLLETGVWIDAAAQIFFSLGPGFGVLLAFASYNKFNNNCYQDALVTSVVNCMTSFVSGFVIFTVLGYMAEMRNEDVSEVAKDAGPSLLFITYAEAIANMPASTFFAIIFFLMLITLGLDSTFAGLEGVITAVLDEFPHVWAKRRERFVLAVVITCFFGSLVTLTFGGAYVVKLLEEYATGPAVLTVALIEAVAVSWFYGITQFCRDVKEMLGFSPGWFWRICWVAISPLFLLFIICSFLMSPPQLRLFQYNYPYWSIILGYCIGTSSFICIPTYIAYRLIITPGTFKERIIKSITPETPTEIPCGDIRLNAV
serotonin 5-HT2A receptor, sequence (P28223 whole entry): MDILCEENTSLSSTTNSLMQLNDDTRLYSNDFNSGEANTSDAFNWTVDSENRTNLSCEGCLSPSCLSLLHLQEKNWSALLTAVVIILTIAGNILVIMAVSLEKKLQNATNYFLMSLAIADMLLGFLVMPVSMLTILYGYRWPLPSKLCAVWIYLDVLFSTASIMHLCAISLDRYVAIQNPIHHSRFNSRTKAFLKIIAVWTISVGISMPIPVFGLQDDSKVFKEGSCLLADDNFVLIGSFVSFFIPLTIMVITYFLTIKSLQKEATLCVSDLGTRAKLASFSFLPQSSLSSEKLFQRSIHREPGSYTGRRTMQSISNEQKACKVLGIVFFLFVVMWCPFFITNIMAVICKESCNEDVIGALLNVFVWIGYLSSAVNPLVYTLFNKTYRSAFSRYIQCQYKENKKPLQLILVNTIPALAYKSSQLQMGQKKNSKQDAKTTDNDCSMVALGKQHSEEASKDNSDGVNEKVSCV

| SMILES | affinity for cholinergic muscarinic receptors [1] | affinity for serotonin 5-HT1A receptor [2] | affinity for α1-adrenergic receptor (α1-adrenergic receptor) | affinity for serotonin 5-HT2C receptor [3] | affinity for serotonin reuptake site (serotonin reuptake site) | affinity for histamine H1 receptor (histamine H1 receptor) | affinity for serotonin 5-HT2A receptor [4] | hygroscopicity [5] |
| --- | --- | --- | --- | --- | --- | --- | --- | --- |
| O=C1CCc2ccc(OCCCCN3CCN(c4cccc(Cl)c4Cl)CC3)cc2N1 [Aripiprazole] | no appreciable affinity | high affinity | moderate affinity | moderate affinity | moderate affinity | moderate affinity | high affinity |  |
| O=C1CCc2ccc(OCCCCN3CCN(c4cccc(Cl)c4Cl)CC3)cc2N1 [anhydride aripiprazole, aripiprazole] |  |  |  |  |  |  |  | significantly hygroscopic |
